# According to US9604925B2, “Class II HMG-CoA reductase inhibitors and methods of use” (Purdue Research Foundation, priority 2012, dated 2017):
# Assays:
# S. aureus HMGR = S. aureus HMGR (Staphylococcus aureus, UniProt Q9FD86); assay: biochemical
# E. faecalis II-HMGR = E. faecalis II-HMGR (Enterococcus faecalis, UniProt Q9FD70); assay: biochemical
# J774A.1 cells = assay: In vitro cell viability/cytotoxicity MTS assay; assay type: cell-based; settings: 100 μM, 24 hours
# Method: Cytotoxicity of the compounds was evaluated using J774A.1 cells (mitochondrial function) in the CellTiter 96® AQueous Non-Radioactive Cell Proliferation Assay (Promega). […] Formazan is measured by measuring the absorbance at 490 nm. Briefly, ˜2×10^4 J774A.1 cells suspended in 200 μL DMEM supplemented with 10% fetal bovine serum (FBS), L-glutamine, NaHCO3, pyridoxine-HCl, and […] glucose and preserved with 1% penicillin-streptomycin solution were seeded in 96-well plates and incubated at 37° C. in a 5% CO2 atmosphere. The cells were cultured for 24 hours (60% confluency) before the assays. The J774A.1 cells were further incubated with 100 μM of compounds (2f, […], 2j, and 2e) and DMSO as a control for 24 hours. The culture media was discarded, and the cells in each well were washed with PBS and re-suspended with 100 μL of cell culture media prior to addition of the assay reagent. The plates were incubated for 4 hours at 37° C. in a humidified 5% CO2 atmosphere. The absorbance at 490 nm was recorded using a 96-well Elisa plate reader (SoftMax ProInc., USA). Results were expressed as the percentage mean absorbance by cells upon incubation with various treatments (compounds 2f, 2j, 2i, and 2e) with respect to incubation with DMSO. The results are expressed as means from six measurements±SD.
# [1] = tested on: Bacillus anthracis Sterne strain (34F2); assay type: cell-based
# Bacillus subtilis = assay: Screen and MIC/MBC against Bacillus subtilis; assay type: cell-based
# Bacillus cereus = assay: Screen and MIC/MBC against Bacillus cereus; assay type: cell-based
# Listeria monocytogenes = assay: Screen and MIC/MBC against Listeria monocytogenes; assay type: cell-based
# Brucella abortus = assay type: cell-based
# [2] = tested on: Candida albicans ATCC 18804; assay: MIC/MFC against Candida albicans in YM broth; assay type: cell-based; settings: yeast medium broth
# Method: Antifungal activities of 22 HMG-CoA Reductase inhibitors were initially tested at 100 μM concentration against Candida albicans ATCC 18804.
# [3] = tested on: Staphylococcus aureus ATCC 6538 planktonic organisms (not in biofilm); assay: MIC/MBC against planktonic S. aureus ATCC 6538; assay type: cell-based
# [4] = tested on: Staphylococcus aureus ATCC 6538 adherent organisms (biofilm); assay: MIC/MBC in adherent-cell biofilm of S. aureus ATCC 6538; assay type: cell-based
# Method: An adherent biofilm for susceptibility testing was formed using a clinical isolate of Staphylococcus aureus (ATCC 6538). S. aureus biofilms were prepared in a tissue culture non-treated polystyrene 96-well plate (Corning) and washed with phosphate-buffered saline (PBS) to remove unbound bacteria. Subsequently, serial twofold dilutions of the compounds in MHB were added to wells containing adherent organisms. The polystyrene plates were incubated for 20 h at 37° C. The MIC was taken as the lowest drug concentration at which observable growth was inhibited.
# [5] = tested on: vancomycin resistant Enterococcus faecalis (VRE) ATCC 51299; assay: MIC/MBC micro dilution against VRE; settings: VRE ATCC 51299, MHB, 20 hours
# [6] = tested on: methicillin-resistant Staphylococcus aureus (MRSA) ATCC 43300; assay: MIC/MBC micro dilution against MRSA
# [7] = tested on: vancomycin intermediate Staphylococcus aureus (VISA) NRS1; assay: MIC/MBC against clinical VISA isolate
# [8] = tested on: clinical methicillin-resistant Staphylococcus aureus (MRSA) isolates; assay: MIC/MBC against clinical MRSA isolates
# S. aureus HMGR, sequence (Q9FD86 entry or part of it): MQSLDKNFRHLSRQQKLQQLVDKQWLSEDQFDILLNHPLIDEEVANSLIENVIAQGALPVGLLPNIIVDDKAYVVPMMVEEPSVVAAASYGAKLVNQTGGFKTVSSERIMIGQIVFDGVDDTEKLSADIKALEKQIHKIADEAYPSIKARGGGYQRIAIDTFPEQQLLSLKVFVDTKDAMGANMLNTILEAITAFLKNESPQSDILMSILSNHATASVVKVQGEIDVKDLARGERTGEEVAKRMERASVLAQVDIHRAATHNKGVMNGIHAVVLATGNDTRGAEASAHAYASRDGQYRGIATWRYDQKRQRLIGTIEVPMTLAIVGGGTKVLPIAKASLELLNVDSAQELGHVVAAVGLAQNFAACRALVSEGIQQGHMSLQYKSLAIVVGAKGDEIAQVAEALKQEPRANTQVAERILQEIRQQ
smiles,measurement,setting,value
"CCCCc1ccc(NS(=O)(=O)c2ccc(O)c(C(=O)O)c2)cc1 [Compound 1, 5-[N-(4-butylphenyl)sulfamoyl]-2-hydroxybenzoic acid]",IC50,S. aureus HMGR,91 ± 5 µM
same,IC50,E. faecalis II-HMGR,5 µM
"CC(C)CCCCc1ccc(NS(=O)(=O)c2ccc(O)c(C(=O)O)c2)cc1 [Compound 2j, 2-hydroxy-5-[N-(4-(5-methylhexyl)phenyl)sulfamoyl]benzoic acid]",IC50,S. aureus HMGR,22 µM
same,percentage mean absorbance at 490 nm (MTS) versus DMSO,J774A.1 cells,no significant differences in percentage mean absorption
same,inhibition of growth in initial screen,[1]; 100 μM,showed inhibition of growth
same,Bacillus anthracis MBC,[1]; MHB,32/32
same,Bacillus anthracis MIC,[1]; MHB,32/32
same,inhibition of growth in initial screen,Bacillus subtilis; 100 μM,showed inhibition of growth
same,Bacillus subtilis MBC,Bacillus subtilis; MHB,32/32
same,Bacillus subtilis MIC,Bacillus subtilis; MHB,32/32
same,inhibition of growth in initial screen,Bacillus cereus; 100 μM,showed inhibition of growth
same,Bacillus cereus MBC,Bacillus cereus; MHB,64/64
same,Bacillus cereus MIC,Bacillus cereus; MHB,64/64
same,inhibition of growth in initial screen,Listeria monocytogenes; 100 μM,showed inhibition of growth
same,Listeria monocytogenes MBC,Listeria monocytogenes; MHB,128/>128
same,Listeria monocytogenes MIC,Listeria monocytogenes; MHB,128/>128
same,inhibition of growth in initial screen,Brucella abortus; 100 μM,showed inhibition of growth
same,"Brucella abortus (single value, head does not say MIC or MBC)",Brucella abortus; MHB,64 µM
same,Candida albicans MFC,[2],128/>128
same,Candida albicans MIC,[2],128/>128
same,Planktonic organisms (not in biofilm) MBC,[3],64 µM
same,Planktonic organisms (not in biofilm) MIC,[3],64 µM
same,Adherent organisms (biofilm) MIC^b,"[4]; S. aureus ATCC 6538, 20 h",128 µM
same,Adherent organisms (biofilm) MBC^b,"[4]; S. aureus ATCC 6538, regrowth 20 h in antibiotic-free MHB",128 µM
same,VRE MBC,[5],128/128
same,MRSA MBC,"[6]; MRSA ATCC 43300, MHB, 20 hours, Table 2",64/64
same,MBC,[6]; Staphylococcus aureus,64 µM
same,MIC,[6]; Staphylococcus aureus,64 µM
same,MBC,[7],16 µM
same,MIC,[7],16 µM
same,MBC,[8]; MRSA / NRS123 / USA400,32 µM
same,MIC,[8]; MRSA / NRS123 / USA400,16 µM
same,MBC,[8]; MRSA / NRS382 / USA100,32 µM
same,MIC,[8]; MRSA / NRS382 / USA100,16 µM
same,MBC,[8]; MRSA / NRS383 / USA200,32 µM
same,MIC,[8]; MRSA / NRS383 / USA200,16 µM
same,MBC,[8]; MRSA / NRS384 / USA300,32 µM
same,MIC,[8]; MRSA / NRS384 / USA300,16 µM
same,MBC,[8]; MRSA / NRS385 / USA500,16 µM
same,MIC,[8]; MRSA / NRS385 / USA500,16 µM
same,MBC,[8]; MRSA / NRS386 / USA700,16 µM
same,MIC,[8]; MRSA / NRS386 / USA700,16 µM
same,MBC,[8]; MRSA / NRS387 / USA800,32 µM
same,MIC,[8]; MRSA / NRS387 / USA800,16 µM
same,MBC,[8]; MRSA / NRS483,32 µM
same,MIC,[8]; MRSA / NRS483,16 µM
same,MBC,[8]; MRSA / NRS484,32 µM
same,MIC,[8]; MRSA / NRS484,16 µM
